# Experiments:
# NDH-2B [1] = molecular target: T1, NDH-2B (Staphylococcus aureus, UniProt Q2FZW0); experiment: tryptophan fluorescence quenching titration and STD-NMR; KM […] in steady-state kinetics; type: binding
# T1 construct: gene SAOUHSC_00875
# T1 sequence (Q2FZW0 1-354): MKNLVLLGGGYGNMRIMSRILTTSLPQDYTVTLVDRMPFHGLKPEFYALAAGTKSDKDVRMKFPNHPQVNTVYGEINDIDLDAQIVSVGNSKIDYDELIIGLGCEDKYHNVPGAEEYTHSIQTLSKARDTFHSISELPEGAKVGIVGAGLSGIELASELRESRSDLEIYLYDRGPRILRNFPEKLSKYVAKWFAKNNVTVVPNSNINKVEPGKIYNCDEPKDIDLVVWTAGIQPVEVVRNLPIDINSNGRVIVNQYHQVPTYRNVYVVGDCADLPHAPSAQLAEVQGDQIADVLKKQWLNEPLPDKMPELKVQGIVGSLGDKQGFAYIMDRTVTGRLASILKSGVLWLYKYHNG
# NDH-2B [2] = molecular target: T1, NDH-2B; experiment: co-purified flavin identified by HPLC and UV-visible spectrum; type: binding
# NDH-2B [3] = molecular target: T1, NDH-2B; experiment: steady-state NADPH:DMN oxidoreductase inhibition (Ki app); also tryptophan fluorescence quenching titration; type: biochemical
# NDH-2A = molecular target: T2, NDH-2A (Staphylococcus aureus, UniProt Q2FZV7); experiment: NADH:DMN oxidoreductase specific activity of purified enzyme, pH […]; type: biochemical
# T2 construct: gene SAOUHSC_00878
# NDH-2B [4] = molecular target: T1, NDH-2B; experiment: NADH:DMN oxidoreductase specific activity of purified enzyme; type: biochemical
# NDH-2B [5] = molecular target: T1, NDH-2B; experiment: tryptophan fluorescence quenching titration and STD-NMR; type: binding
# NDH-2B [6] = molecular target: T1, NDH-2B; experiment: tryptophan fluorescence quenching titration; type: binding
# purified protein = substrate: NC(=O)C1=CN([C@@H]2O[C@H](COP(=O)(O)OP(=O)(O)OC[C@H]3O[C@@H](n4cnc5c(N)ncnc54)[C@H](OP(=O)(O)O)[C@@H]3O)[C@@H](O)[C@H]2O)C=CC1; experiment: purified protein; type: biochemical, Staphylococcus aureus; details: FAD binding site different from that of the quinone; pH 7.0
# T2 sequence (Q2FZV7 whole entry): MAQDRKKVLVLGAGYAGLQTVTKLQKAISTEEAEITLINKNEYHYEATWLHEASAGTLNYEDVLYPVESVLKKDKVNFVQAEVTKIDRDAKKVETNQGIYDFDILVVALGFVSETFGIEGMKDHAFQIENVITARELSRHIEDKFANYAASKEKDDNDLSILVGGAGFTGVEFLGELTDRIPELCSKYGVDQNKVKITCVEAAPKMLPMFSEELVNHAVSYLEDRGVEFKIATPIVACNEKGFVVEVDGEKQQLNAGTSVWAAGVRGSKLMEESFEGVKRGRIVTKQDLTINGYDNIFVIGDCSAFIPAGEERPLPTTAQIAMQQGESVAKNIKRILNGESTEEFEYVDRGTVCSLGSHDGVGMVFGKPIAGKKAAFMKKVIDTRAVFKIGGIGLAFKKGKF
molecule,measurement,setting,value
"CC1=C(C)C(=O)c2ccccc2C1=O [DMN, 2,3-dimethyl-1,4-naphthoquinone]",Kd,NDH-2B [1],160 ± 35 µM
"Cc1cc2nc3c(=O)[nH]c(=O)nc-3n(C[C@H](O)[C@H](O)[C@H](O)COP(=O)(O)OP(=O)(O)OC[C@H]3O[C@@H](n4cnc5c(N)ncnc54)[C@H](O)[C@@H]3O)c2cc1C [FAD, flavin adenine dinucleotide]",co-purified flavin identified by HPLC and UV-visible spectrum,NDH-2B [2],Subsequent HPLC analysis confirmed the flavin as flavin adenine dinucleotide (FAD)
"CCCCCCCc1cc(O)c2ccccc2[n+]1[O-] [HQNO, 2-n-heptyl-4-hydroxyquinoline-N-oxide]",Ki,NDH-2B [3],6.4 ± 1.25 µM
NC(=O)C1=CN([C@@H]2O[C@H](COP(=O)(O)OP(=O)(O)OC[C@H]3O[C@@H](n4cnc5c(N)ncnc54)[C@H](O)[C@@H]3O)[C@@H](O)[C@H]2O)C=CC1 [NADH],NDH-2A,NDH-2A,122.10 ± 18.30 µmol/min/mg
same,NDH-2B,NDH-2B [4],34.03 ± 0.86 µmol/min/mg
NC(=O)c1ccc[n+]([C@@H]2O[C@H](COP(=O)(O)OP(=O)(O)OC[C@H]3O[C@@H](n4cnc5c(N)ncnc54)[C@H](OP(=O)(O)O)[C@@H]3O)[C@@H](O)[C@H]2O)c1 [NADP^+],Kd,NDH-2B [5],182 ± 29 µM
NC(=O)c1ccc[n+]([C@@H]2O[C@H](COP(=O)([O-])OP(=O)(O)OC[C@H]3O[C@@H](n4cnc5c(N)ncnc54)[C@H](O)[C@@H]3O)[C@@H](O)[C@H]2O)c1 [NAD^+],Kd,NDH-2B [6],170 ± 7.6 µM
NDH-2B (Staphylococcus aureus subsp. aureus NCTC 8325) (protein) MKNLVLLGGGYGNMRIMSRILTTSLPQDYTVTLVDRMPFHGLKPEFYALAAGTKSDKDVRMKFPNHPQVNTVYGEINDIDLDAQIVSVGNSKIDYDELIIGLGCEDKYHNVPGAEEYTHSIQTLSKARDTFHSISELPEGAKVGIVGAGLSGIELASELRESRSDLEIYLYDRGPRILRNFPEKLSKYVAKWFAKNNVTVVPNSNINKVEPGKIYNCDEPKDIDLVVWTAGIQPVEVVRNLPIDINSNGRVIVNQYHQVPTYRNVYVVGDCADLPHAPSAQLAEVQGDQIADVLKKQWLNEPLPDKMPELKVQGIVGSLGDKQGFAYIMDRTVTGRLASILKSGVLWLYKYHNG,Km,purified protein,80.4 ± 7.7 µM

# Source: paper PMC11302666, “The two alternative NADH:quinone oxidoreductases from Staphylococcus aureus: two players with different molecular and cellular roles” (Microbiology Spectrum, 2024)
